In patent US6964960B2, “Indoloquinazolinones” (Novartis AG, priority 2000, dated 2005):

Experiments:
[1] = tested on: pentobarbital-anesthetized rabbit myocardial infarction; assay: pentobarbital-anesthetized rabbit myocardial infarction model; assay type: in vivo
Source text: The cardioprotective activity of the agents of the invention is confirmed in vivo e.g. in a model of pentobarbital-anesthetized rabbit myocardial infarction where the infarct size is reduced upon administration of about 1 to about 100 μmol/kg [For the model, see for example Ytrehus K. et al., Am. J. Physiol 267 (Heart Circ. Physiol. 36): H2383-2390, 1994 and Haessler R. et al., Cardiov. Res. 28: 1574-1580, 1994; for the cardioprotective effect of PARP inhibitors as evidenced in this model, see for example Thiemermann C. et al., Proc. Natl. Acad. Sci. USA 94: 679-683, 1997].

Compound | melting point | reduction of infarct size ([1]; highest dose tested (70 μmol/kg i.v., 22.1 mg/kg of the base), single injection five minutes before reperfusion) [%] | effect on infarct size ([1]; single injection at 3-70 μmol/kg i.v. (0.95-22.1 mg/kg i.v. of the base) five minutes before reperfusion)
Cl.Cl.O=c1[nH]c2c(CCNCCN3CCOCC3)c3ccccc3n2c2ccccc12 | 196 to 198 °C |  | 
CCc1c2ccccc2n2c1[nH]c(=O)c1ccccc12 [Example 1, 7-Ethyl-6H-indolo[1,2-a]quinazoline-5-one] | 245 to 260 °C |  | 
O=c1[nH]c2c(Cc3nnn[nH]3)c3ccccc3n2c2ccccc12 [Example 22, 7-(1 H-Tetrazole-5-ylmethyl)-6H-indolo[1,2-a]quinazoline-5-one] |  | 60 | dose-dependently reduces infarct size
O=c1[nH]c2c(CCO)c3ccccc3n2c2ccccc12 [Example 61, 7-(2-Hydroxy-ethyl)-6H-indolo[1,2-a]quinazoline-5-one] | 248 to 252 °C |  | 
NCCc1c2ccccc2n2c1[nH]c(=O)c1ccccc12 [Example 64, 7-(2-Amino-ethyl)-6H-indolo[1,2-a]quinazoline-5-one] | > 300 °C |  | 
CCC(N)Cc1c2ccccc2n2c1[nH]c(=O)c1ccccc12 (stereo not shown) [Example 65, 7-(2-Amino-butyl)-6H-indolo[1,2-a]quinazoline-5-one] | 165 to 195 °C (dec.) |  | 
